Reference: patent US20110045522A1, “METHODS FOR DIAGNOSING DIABETES AND DETERMINING EFFECTIVENESS OF TREATMENTS” (priority 2009, published 2011)

Assays:
[1] = system: IL-1Ra production in human kidney proximal tubular cell line (HK-2); experiment: IL-1Ra production in HK-2 cell culture media, ELISA; assay type: cell-based; details: HK-2 cells; for concentration of IL-1Ra: FIG. 1B
Method: Human kidney proximal cell line is commercially available and may be purchased, for example, from American Type Culture Collection (ATCC) under the symbol HK-2.
The immortalized human kidney proximal tubular cell line (HK-2) was cultured in DMEM/F12 containing 2.50 g/l HEPES, 1.80 g/l sodium bicarbonate, 100 U/ml penicillin, […] streptomycin, and 10% FCS at 37° C. in 5% CO2. After being digested with 0.25% trypsin, 1×10^5 cells were grown in 50 ml plastic culture bottles. The cells were cultured overnight in DMEM/F12 5% FCS; then, media were changed to fresh DMEM/F12 5% FCS containing diacerin with various concentrations of 2.0 μg/ml, 2.5 μg/ml, 3.0 μg/ml, 5.0 μg/ml, 10 μg/ml, 20 μg/ml, and negative (5% FCS) controls. Cultures were continued for further time points of 0 hour, 0.5 hour, 1 hour, 3 hours, 5 hours, 8 hours, 16 hours, 32 hours, and 72 hours. Upon reaching each time point, the media were collected. The cell culture method is well explained in Yao, et al, Preventive Effects of Salvianolic Acid on Transforming Growth Factorb 1-Induced Epithelial-to-Mesenchymal Transition of Human Kidney Cells, Biol. Pharm. Bull. 2009, 32(5) 882-886.
The collected media at each time point and concentration were assayed for IL-1Ra concentrations using ELISA assays.

[2] = system: IL-1β; details: human OA cartilage and synovial tissue cultures; cited from earlier work
[3] = system: IL-1 receptor antagonist (IL-1Ra); details: cartilage culture media; cited from earlier work
[4] = system: INS-1E cells; details: reported in the literature; positive control; cited from earlier work

In the case of `CC(=O)Oc1cccc2c1C(=O)c1c(OC(C)=O)cc(C(=O)O)cc1C2=O` [diacerin, 4,5-bis(acetyloxy)-9,10-dioxo-2-anthracene carboxylic acid], the “concentration of IL-1Ra” value ([1]; 5 μg/ml diacerin, 16 hours treatment) is reported as “approximately 0.8 pg/ml”, the “concentration of IL-1Ra” value ([1]; 10 μg/ml diacerin, 16 hours treatment) is reported as “approximately 1.3 pg/ml” and the “concentration of IL-1Ra” value ([1]; 20 μg/ml diacerin, 16 hours treatment) is reported as “approximately 4.2 pg/ml”. The “concentration at which IL-1Ra production was first observed” value ([1]; 16 hours treatment) was 5 µg/mL, the “effect on IL-1Ra production” value ([1]; 16 hours treatment) was “dose-dependently increased” and the “dose-dependent effect on production of IL-1Ra” value ([1]; 32 hours treatment) was “diminished”. The “dose-dependent effect on production of IL-1Ra” value ([1]; 72 hours treatment) was “diminished”, the IL-1β production [2] was “significantly inhibited” and the IL-1Ra levels [3] was “increased”.

For `O=C(O)c1cc(O)c2c(c1)C(=O)c1cccc(O)c1C2=O` [rhein, 9,10-dihydro-4,5-dihydroxy-9,10-dioxo-2-anthracenecarboxylic acid], the IL-1β production [2] is listed as “significantly inhibited” and the IL-1Ra levels [3] is listed as “increased”.

In the case of “Exendin-4: positive control, reported to inhibit IL-1β-induced INS-1E cell apoptosis”, the “IL-1β-induced INS-1E cell apoptosis” value [4] is given as “inhibit”.
